# Where “and” joins values, the source holds several entries; their conditions need not be identical. Equal values may be shown once.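 Each compound was tested at five concentrations against cells in 96-well plates for 48 hours. GI50 = concentration required for 50% inhibition of growth. At the TGI there is no net growth.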
# Columns and labels:
# Experiment in all cases: NCI tumour cell line growth inhibition, 48 h
# [1] = test system: MCF7 breast
# [2] = test system: SK-OV-3 ovarian
# [3] = test system: NCI-H522 lung
# [4] = test system: HS 578T breast
# [5] = test system: HL-60(TB) leukemia
# [6] = test system: COLO 205 colon
# [7] = test system: K-562 leukemia
# [8] = test system: M14 melanoma
# [9] = test system: T-47D breast
# [10] = test system: HT29 colon
SMILES,GI50 [1] [µM],TGI [1],GI50 [2],TGI [2],GI50 [3],TGI [3],GI50 [4] [µM],TGI [4],GI50 [5],TGI [5],GI50 [6],TGI [6],GI50 [7],TGI [7],GI50 [8],TGI [8],GI50 [9],TGI [9],GI50 [10],TGI [10]
CC1(C)Cc2c(Br)c(Br)c(Br)c(OCC(O)CN3CCN(c4ccccn4)CC3)c2O1 (centres undefined),10.3,22.4 µM,33.2 µM,> 100 µM,16.8 µM,35.5 µM,18.6,39.2 µM,2.8 µM,11.1 µM,15 µM,34.4 µM,4.1 µM,20.3 µM,13.3 µM,29.7 µM,18.3 µM,> 100 µM,5.5 µM,18 µM
CN(C)c1cccc(F)c1C(=O)NC(=O)Nc1ccc(Cl)cc1,–,> 100 µM,–,> 29.3 µM,–,5.77 µM,–,> 22.3 µM,–,18.1 µM,–,> 100 µM,–,> 34.4 µM,–,> 100 µM,–,> 100 µM,–,> 23.2 µM
COCCOCCOCc1n(Cc2ccc3ccccc3n2)c2ccccc2[n+]1Cc1ccc2ccccc2n1,0.369,11.1 µM,1.79 µM,6.6 µM,0.415 µM,11.1 µM,2.16,21 µM,0.26 µM,1.31 µM,0.284 µM,1.5 µM,0.421 µM,13.2 µM,1.56 µM,12.8 µM,0.302 µM,13.1 µM,0.53 µM,10.6 µM
NC1(Cc2ccc(Cl)cc2)CCN(c2ncnc3[nH]ccc23)CC1,4.1,17.6 µM,2.35 µM,15.8 µM,12.6 µM,27.7 µM,2.17,14.6 µM,3.39 µM,17.6 µM,3.72 µM,15.1 µM,4.66 µM,19.4 µM,8.58 µM,23.6 µM,1.59 µM,14.7 µM,3.7 µM,17.8 µM
O=C(CC1C=Cc2ccccc2N1C(=O)c1ccccc1)c1ccccc1 (centres undefined),–,> 100 µM,–,> 100 µM,–,53.2 µM,–,67.4 µM,–,43.4 µM,–,42.5 µM,–,> 100 µM,–,65.6 µM,–,> 100 µM,–,40.2 µM
CCOc1ccc2c(c1)c(CC(=O)O)cn2C,–,> 100 µM,–,> 100 µM,–,> 100 µM,–,> 100 µM,–,> 100 µM,–,> 100 µM,–,> 100 µM,–,> 100 µM,–,> 100 µM,–,> 100 µM
COc1cc2oc3c(c(=O)c2c(O)c1/C=C/C(C)C)C(C=C(C)C)Oc1cc(O)ccc1-3 (centres undefined),–,28.6 µM,–,30.5 µM,–,32.3 µM,–,38.2 µM,–,56.1 µM,–,29.4 µM,–,24.2 µM,–,27.3 µM,–,31 µM,–,28.8 µM
C/C(=N\NC(=S)N1CCCCCC1)c1cccc2cccnc12,–,> 100 µM,–,> 81.5 µM,–,> 100 µM,–,> 100 µM,–,> 45.7 µM,–,12.3 µM,–,> 100 µM,–,14 µM,–,70.9 µM,–,19.1 µM
NC(=O)c1sc(-n2cnc3cc(C(F)(F)F)ccc32)cc1OCc1ccccc1Br,> 13.4,> 25 µM,9.07 µM,> 25 µM,> 20 µM,> 25 µM,12.4,> 25 µM,> 25 µM,> 25 µM,> 25 µM,> 25 µM,24.7 µM,> 25 µM,> 25 µM,> 25 µM,> 21 µM,> 25 µM,> 19.5 µM,> 25 µM
CCSC[C@@H]1C[C@](O)(c2ccc(F)cc2)[C@@H](c2ccc(F)cc2)O1,17.1,34.8 µM,18.3 µM,38 µM,18.4 µM,49.3 µM,18,37 µM,7 µM,21.2 µM,16.5 µM,31.6 µM,16 µM,31.5 µM,15.8 µM,32.4 µM,15 µM,35.8 µM,14.1 µM,27.7 µM
COc1ccc2c(c1)-c1nn(CCCN(C)C)c3ccc([N+](=O)[O-])c(c13)N2,–,2.7 µM and 10.9 µM,0.175 µM and 0.866 µM,1.86 µM and 7.69 µM,0.117 µM and 0.385 µM,1.03 µM and 2.26 µM,0.355,3.17 µM and 3.24 µM,0.468 µM and 2.9 µM,1.82 µM and 9.36 µM,0.0962 µM and 0.276 µM,0.913 µM and 3.75 µM,0.145 µM and 0.338 µM,5.57 µM and 12.1 µM,–,4.7 µM and 7 µM,0.668 µM and 0.308 µM,11.4 µM and 2.27 µM,–,2.46 µM and 3.05 µM
CC(=O)O[C@H]1CC[C@@]2(C)C(=C/C(=N/OCCN3CCCC3)[C@H]3[C@@H]4CC[C@H](OC(C)=O)[C@@]4(C)CC[C@@H]32)C1,53.4,> 100 µM,40.8 µM,> 100 µM,47.5 µM,> 100 µM,34.9,> 100 µM,23.3 µM,57.7 µM,18.5 µM,34.9 µM,27.3 µM,> 100 µM,17.6 µM,37.2 µM,52.1 µM,> 100 µM,12.5 µM,> 100 µM
CN(C)c1ccc(/C=N/S(=O)(=O)c2ccc(-n3c(-c4ccccc4)nc4c(Br)cc(Br)cc4c3=O)cc2)cc1,28.8,> 78 µM,47.2 µM,> 100 µM,32.2 µM,> 97 µM,32.6,> 92.1 µM,34.4 µM,84.2 µM,44.9 µM,> 100 µM,31.3 µM,> 86.5 µM,31.1 µM,> 93.5 µM,24.5 µM,88 µM,42.5 µM,> 100 µM
C[C@@H](CO)NC(=O)c1cc(-c2ccc(Cl)cc2)nn(-c2cnn(C)c2)c1=O,25.7,> 100 µM,82.6 µM,> 100 µM,14.4 µM,35.7 µM,24.8,> 100 µM,13.9 µM,42.3 µM,24.7 µM,90.6 µM,26.3 µM,95 µM,31.1 µM,> 100 µM,25.9 µM,> 100 µM,19.4 µM,76.7 µM
CCc1nc(N)nc(N)c1-c1ccc(Cl)c(N=[N+]=[N-])c1,–,> 76.1 µM and 56.7 µM,–,> 100 µM,–,42.5 µM and 29.4 µM,–,93.1 µM and > 100 µM,0.4 µM and 2.14 µM,–,–,23.3 µM and 26.1 µM,–,> 54.8 µM,0.641 µM and 3.51 µM,24.1 µM and 49 µM,–,> 96.2 µM,1.32 µM and 3.06 µM,> 85.4 µM
CN(CCC(=O)/C(=C\c1ccccc1)c1ccc(Cl)cc1)Cc1ccccc1,2.06,16.5 µM,12.7 µM,26.4 µM,1.69 µM,3.19 µM,3.99,47.5 µM,5.95 µM,34.5 µM,2.75 µM,7.24 µM,2.16 µM,13.1 µM,2.7 µM,7.99 µM,2.5 µM,9.01 µM,2.28 µM,5.2 µM
CCC(C)C(=O)OCC(=O)c1ccc(-c2ccccc2)cc1 (centres undefined),–,> 100 µM,–,> 100 µM,–,74.9 µM,–,> 100 µM,–,> 100 µM,–,> 100 µM,–,> 100 µM,–,> 100 µM,–,> 100 µM,–,> 100 µM
